{"source": "patent US10624875B2", "about": "“Methods and compositions for treating schizophrenia” (The Johns Hopkins University, priority 2012, dated 2020)", "key": {"[1]": {"tested_on": "aMCI subjects", "test": "Verbal Paired Associates Test - Delayed Recall", "assay_type": "in vivo, human", "conditions": "125 mg twice a day for two weeks", "description": "A within-subjects trial of 8 weeks duration, involving 17 amnestic MCI (aMCI) subjects and 17 age-matched controls with a low dose treatment of levetiracetam is conducted. During the course of the study, each aMCI subject receives both drug and placebo treatments separately in two periods of two weeks each, with the order of treatments among different aMCI subjects counterbalanced (see FIG. 7). Age-matched control subjects treated with placebo serve as a further control. Cognitive testing and fMRI imaging data are obtained from the subjects after each two week period of drug/placebo treatment.\nAll participants undergo neuropsychological evaluation at the time of assessment for treatment efficacy (Visits 1 and 2), as well as at the Baseline Visit. […]\nAs described above, the drug treatment period is the two weeks preceding Visit 1 or 2 (with the two week period preceding the other Visit being the placebo phase). For the subjects receiving the drug treatment, half a scored 250 mg tablet of levetiracetam is used to achieve a dose of […], which is approximately 3.6 mg/kg/day (assuming an average adult human weight of 70 kg)."}, "[2]": {"tested_on": "aged-impaired (AI) rats", "test": "eight-arm Radial Arm Maze (RAM) task with one-hour delay, spatial memory retention", "assay_type": "in vivo, rat", "description": "The effects of levetiracetam on the spatial memory retention of aged-impaired (AI) rats were assessed in a Radial Arm Maze (RAM) behavioral task using vehicle control and five different dosage levels of levetiracetam (1.25 mg/kg/day, 2.5 mg/kg/day, 5 mg/kg/day, 10 mg/kg/day and 20 mg/kg/day). RAM behavioral tasks were preformed on ten AI rats. All six treatment conditions were tested on all ten rats, as described above for the MWM test. The RAM apparatus used consisted of eight equidistantly-spaced arms. An elevated maze arm (7 cm width×75 cm length) projected from each facet of an octagonal center platform (30 cm diameter, 51.5 cm height). Clear side walls on the arms were 10 cm high and were angled at 65° to form a trough. A food well (4 cm diameter, 2 cm deep) was located at the distal end of each arm. Froot Loops™ (Kellogg Company) were used as rewards. Blocks constructed of Plexiglas™ (30 cm height×12 cm width) could be positioned to prevent entry to any arm. Numerous extra maze cues surrounding the apparatus were also provided. The AI rats were initially subjected to a pre-training test (Chappell et al. Neuropharmacology 37: 481-487, 1998). The pre-training test consisted of a habituation phase (4 days), a training phase on the standard win-shift task (18 days) and another training phase (14 days) in which a brief delay was imposed between presentation of a subset of arms designated by the experimenter (e.g., 5 arms available and 3 arms blocked) and completion of the eight-arm win-shift task (i.e., with all eight arms available). In the habituation phase, rats were familiarized to the maze for an 8-minute session on four consecutive days. In each of these sessions food rewards were scattered on the RAM, initially on the center platform and arms and then progressively confined to the arms. After this habituation phase, a standard training protocol was used, in which a food pellet was located at the end of each arm. Rats received one trial each day for 18 days. Each daily trial terminated when all eight food pellets had been obtained or when either 16 choices were made or 15 minutes had elapsed. After completion of this training phase, a second training phase was carried out in which the memory demand was increased by imposing a brief delay during the trial. At the beginning of each trial, three arms of the eight-arm maze were blocked. Rats were allowed to obtain food on the five arms to which access was permitted during this initial ‘information phase’ of the trial. Rats were then removed from the maze for 60 seconds, during which time the barriers on the maze were removed, thus allowing access to all eight arms. Rats were then placed back onto the center platform and allowed to obtain the remaining food rewards during this ‘retention test’ phase of the trial. The identity and configuration of the blocked arms varied across trials. The number of “errors” the AI rats made during the retention test phase was tracked. An error occurred in the trial if the rats entered an arm from which food had already been retrieved in the pre-delay component of the trial, or if it re-visited an arm in the post-delay session that had already been visited. After completion of the pre-training test, rats were subjected to trials with more extended delay intervals, i.e., a one-hour delay, between the information phase (presentation with some blocked arms) and the retention test (presentation of all arms). […]"}, "[3]": {"conditions": "drug on its own (levetiracetam i.p., valproate subcutaneous)"}}, "note": "“And” between values parts separate entries of the source, which are not always exact repeats. Identical values can stand only once."}
{"smiles": "CC[C@@H](C(N)=O)N1CCCC1=O", "note": "[levetiracetam, (2S)-2-(2-oxopyrrolidin-1-yl) butanamide]", "values": [{"measurement": "performance in Verbal Paired Associates Test - Delayed Recall", "setting": "[1]", "value": "fail to rescue performance"}, {"measurement": "performance in the radial maze task", "setting": "[2]; 20 mg/kg", "value": "fails to improve the performance"}, {"measurement": "dose effective in reducing the number of errors", "setting": "[2]; [3]", "value": "5 to 10", "unit": "mg/kg"}, {"measurement": "dose not effective in reducing the number of errors", "setting": "[2]; [3]", "value": "1.25 mg/kg and 2.5 mg/kg"}]}
